For 35 compounds, Ki results are on record in BindingDB's records for doi:10.1021/jm00349a003 (1982).

Sequence of Dihydrofolate reductase (P00381 whole entry): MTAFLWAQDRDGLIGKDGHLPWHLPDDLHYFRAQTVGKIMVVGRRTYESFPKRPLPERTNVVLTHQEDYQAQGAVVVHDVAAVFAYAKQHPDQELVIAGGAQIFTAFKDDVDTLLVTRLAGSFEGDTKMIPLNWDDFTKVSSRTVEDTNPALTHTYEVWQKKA

This experiment addresses Dihydrofolate reductase (Lacticaseibacillus casei, UniProt P00381). In words: Inhibitory activity against dihydrofolate reductase (DHFR) from Lactobacillus casei (expressed as log 1/Kiapp).
Compound `COc1ccc(Cc2cnc(N)nc2N)cc1C(F)(F)F` gave a Ki of 50 nM. Then `COCCOc1ccc(Cc2cnc(N)nc2N)cc1`, with 891 nM; and `Nc1ncc(Cc2ccc(OC(F)(F)F)cc2)c(N)n1`, with 501 nM; and `Nc1ncc(Cc2cccc(Br)c2)c(N)n1`, with 589 nM. Take `CCCCCCOc1ccc(Cc2cnc(N)nc2N)cc1`: the Ki is 1860 nM. Take `Nc1ncc(Cc2cccc(C(F)(F)F)c2)c(N)n1`: the Ki amounted to 692 nM.

`Nc1ncc(Cc2ccc([N+](=O)[O-])cc2)c(N)n1` registered a Ki of 1000 nM. As to `CC(=O)Nc1ccc(Cc2cnc(N)nc2N)cc1`, the Ki came out at 891 nM. Consider `Nc1ncc(Cc2cccc(O)c2)c(N)n1` [3-(2,4-Diamino-pyrimidin-5-ylmethyl)-phenol], for which the Ki is 1510 nM.

`CCCCOc1ccc(Cc2cnc(N)nc2N)cc1` returned a Ki of 427 nM. With `Nc1ncc(Cc2ccc(O)c(O)c2)c(N)n1`, the Ki turned out to be 1440 nM. `CC(=O)Nc1ccc(Cc2cnc(N)nc2N)cc1[N+](=O)[O-]` had a Ki of 1000 nM. Then `NC(=O)COc1cccc(Cc2cnc(N)nc2N)c1`, with 1100 nM; and `CCCCCCCOc1ccc(Cc2cnc(N)nc2N)cc1` [5-(4-Heptyloxy-benzyl)-pyrimidine-2,4-diamine], with 4370 nM; and `Nc1ncc(Cc2cc(CO)cc(CO)c2)c(N)n1`, with 1860 nM. The value for `Nc1ncc(Cc2cccc(Cl)c2)c(N)n1` was 1260 nM; that for `Nc1ncc(Cc2ccc(Br)cc2)c(N)n1` was 617 nM; that for `CN(C)c1ccc(Cc2cnc(N)nc2N)cc1` was 676 nM. The value for `Nc1ncc(Cc2cccc(CO)c2)c(N)n1` was 2140 nM; that for `Cc1cccc(Cc2cnc(N)nc2N)c1` was 1660 nM. Regarding `Nc1ncc(Cc2ccc(Cl)cc2)c(N)n1`, the Ki was found to be 646 nM. Take `Nc1ncc(Cc2cc(O)cc(O)c2)c(N)n1`: the Ki is 417000 nM. Then `COCCOc1c(OC)cc(Cc2cnc(N)nc2N)cc1OC` [5-[3,5-Dimethoxy-4-(2-methoxy-ethoxy)-benzyl]-pyrimidine-2,4-diamine], with 550 nM.

`Nc1ncc(Cc2ccccc2)c(N)n1`: the Ki amounted to 6310 nM. The compound `COc1ccc(Cc2cnc(N)nc2N)cc1OC` [Diaveridine] showed a Ki of 120 nM. Regarding `Nc1ncc(Cc2ccc(F)cc2)c(N)n1`, the Ki worked out at 2140 nM. The value for `COCCOc1ccc(Cc2cnc(N)nc2N)cc1OCCOC` was 309 nM. Compound `CS(=O)(=O)Oc1cccc(Cc2cnc(N)nc2N)c1` yielded a Ki of 1200 nM.

The compound `COCCOc1cccc(Cc2cnc(N)nc2N)c1` yielded a Ki of 759 nM. Then `Cc1ccc(Cc2cnc(N)nc2N)cc1`, with 1480 nM; and `COCc1cccc(Cc2cnc(N)nc2N)c1`, with 2290 nM. The compound `CCCCOCc1cccc(Cc2cnc(N)nc2N)c1` showed a Ki of 3240 nM. The value for `Nc1ncc(Cc2cccc(I)c2)c(N)n1` was 214 nM. The value for `Nc1ccc(Cc2cnc(N)nc2N)cc1` was 3390 nM; that for `Nc1ncc(Cc2cccc(F)c2)c(N)n1` was 4170 nM.
